Experimental data taken from US20260001914A1, “MACROCYCLIC PEPTIDES TARGETING KRAS” (Merck Sharp & Dohme LLC, priority 2022, published 2026).
pEC50: −log10 of the molar value. *1 amine or outer side, *2 acyl side, *3 side chain or, on linkers, in order; H or OH if unused. Where a SMILES comes first, the peptide text is derived from it. [ ]: non-standard residue; d: D form. X34 = O=C(C[C@@H](Cc1ccccc1)C(=O)[*:2])C12CC(CN[*:1])(C1)C2; Ala(1-bicyclo(1.1.1)pentyl) = N[C@@H](CC12CC(C1)C2)C(=O)O; NMeNva(5-imidazol-1-yl) = CN[C@@H](CCCn1ccnc1)C(=O)O; X23 = O=C([C@H](Cc1ccc(C(F)(F)F)nc1)N[*:1])[*:2]; Ala(pyrimidin-5-yl) = N[C@@H](Cc1cncnc1)C(=O)O; NMePhe(3-Me) = CN[C@@H](Cc1cccc(C)c1)C(=O)O; X11 = CC(C)(F)CC[C@H](N[*:1])C(=O)[*:2]; NMeAha = CN[C@@H](CCN=[N+]=[N-])C(=O)O; Nle(5,5-F2) = CC(F)(F)CC[C@H](N)C(=O)O; X2 = O=C([C@H](Cc1ccccc1F)O[*:1])[*:2]; X35 = CN([C@@H](CCCF)C(=O)[*:2])[*:1]; Phe(2-F) = N[C@@H](Cc1ccccc1F)C(=O)O; Abu(4,4-F2) = N[C@@H](CC(F)F)C(=O)O; NMe3Pal = CN[C@@H](Cc1cccnc1)C(=O)O; X1 = O=C(C12CC(CN[*:1])(C1)C2)[*:2]; Aha = [N-]=[N+]=NCC[C@H](N)C(=O)O; Ala(cPr) = N[C@@H](CC1CC1)C(=O)O; NMeF = CN[C@@H](Cc1ccccc1)C(=O)O; PhLac = O=C(O)[C@@H](O)Cc1ccccc1; X9 = CCCC[C@H](O[*:1])C(=O)[*:2]; 3Pal = N[C@@H](Cc1cccnc1)C(=O)O; Ala(CN) = N#CC[C@H](N)C(=O)O; NMeNle = CCCC[C@H](NC)C(=O)O; hLeu = CC(C)CC[C@H](N)C(=O)O; NMeS = CN[C@@H](CO)C(=O)O; NMeA = CN[C@@H](C)C(=O)O; Nle = CCCC[C@H](N)C(=O)O

Molecular target: phosphorylation levels of ERK1/2 in AsPC-1 (homozygous KRAS-G12D) cells (Homo sapiens, UniProt P01116, G12D)
Sequence (P01116 1-186 G12D): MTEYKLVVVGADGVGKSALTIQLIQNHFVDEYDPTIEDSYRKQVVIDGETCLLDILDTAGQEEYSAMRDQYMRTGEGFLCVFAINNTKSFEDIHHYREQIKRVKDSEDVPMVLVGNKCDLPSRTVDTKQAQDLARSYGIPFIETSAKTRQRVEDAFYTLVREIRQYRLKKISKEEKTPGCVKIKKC
Experiment: Cellular phospho-ERK assay in AsPC-1 cells (Alpha Screen), assay medium without fetal bovine serum;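 also: signal taken as phospho-ERK over total ERK per well, both detected in one multiplex bead assay, EC50 from four-parameter logistic fit of dose-response curves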
Type: cell-based
Conditions: phospho-ERK AlphaScreen, 18 h

Compound	pEC50
CCCC[C@@H]1NC(=O)[C@H](Cc2cncnc2)NC(=O)[C@H](C)N(C)C(=O)[C@H](Cc2ccccc2)OC(=O)C23CC(CNC(=O)[C@H](Cc4cccnc4)N(C)C(=O)[C@H](CCCC)NC(=O)[C@H](Cc4ccccc4F)NC1=O)(C2)C3 [compound 237, cyclo(FLac-NMeA-PyrimAla-Nle-Phe2F-Nle-NMe3Pal-amBCP)] (cyclo([NMe3Pal][X1][PhLac][NMeA][Ala(pyrimidin-5-yl)][Nle][Phe(2-F)][Nle]))	4.87
CCCC[C@@H]1NC(=O)[C@H](Cc2cccnc2)NC(=O)[C@H](CCN=[N+]=[N-])N(C)C(=O)[C@H](Cc2ccccc2)OC(=O)C23CC(CNC(=O)[C@H](Cc4cccnc4)N(C)C(=O)[C@H](CCCC)NC(=O)[C@H](Cc4ccccc4F)OC1=O)(C2)C3 [compound 238, cyclo(FLac-NMeDabN3-3Pal-Nle-F2FLac-Nle-NMe3Pal-amBCP)] (cyclo([3Pal][Nle][X2][Nle][NMe3Pal][X1][PhLac][NMeAha]))	5.46
CCCC[C@@H]1NC(=O)[C@H](Cc2cccnc2)NC(=O)[C@H](CCCF)N(C)C(=O)[C@H](Cc2ccccc2)OC(=O)C23CC(CNC(=O)[C@H](Cc4cccnc4)N(C)C(=O)[C@H](CCCC)NC(=O)[C@H](Cc4ccccc4F)NC1=O)(C2)C3 [compound 239, cyclo(FLac-NMeNvaF-3Pal-Nle-Phe2F-Nle-NMe3Pal-amBCP)] (cyclo([3Pal][Nle][Phe(2-F)][Nle][NMe3Pal][X1][PhLac][X35]))	4.68
CCCC[C@@H]1NC(=O)[C@H](Cc2cncnc2)NC(=O)[C@H](CCCn2ccnc2)N(C)C(=O)[C@H](Cc2ccccc2)OC(=O)C23CC(CNC(=O)[C@H](Cc4cccnc4)N(C)C(=O)[C@H](CCCC)NC(=O)[C@H](Cc4ccccc4F)NC1=O)(C2)C3 [compound 240, cyclo(FLac-NMeNvalmid-PyrimAla-Nle-Phe2F-Nle-NMe3Pal-amBCP)] (cyclo([NMe3Pal][X1][PhLac][NMeNva(5-imidazol-1-yl)][Ala(pyrimidin-5-yl)][Nle][Phe(2-F)][Nle]))	< 4.29
CCCC[C@@H]1NC(=O)[C@H](Cc2ccc(C(F)(F)F)nc2)NC(=O)[C@H](CCN=[N+]=[N-])N(C)C(=O)[C@H](Cc2ccccc2)OC(=O)C23CC(CNC(=O)[C@H](Cc4cccnc4)N(C)C(=O)[C@H](CCCC)NC(=O)[C@H](Cc4ccccc4F)NC1=O)(C2)C3 [compound 241, cyclo(FLac-NMeDabN3-4CF33Pal-Nle-Phe2F-Nle-NMe3Pal-amBCP)] (cyclo([NMe3Pal][X1][PhLac][NMeAha][X23][Nle][Phe(2-F)][Nle]))	5.21
CCCC[C@@H]1NC(=O)[C@H](Cc2cncnc2)NC(=O)[C@H](CCN=[N+]=[N-])N(C)C(=O)[C@H](Cc2ccccc2)OC(=O)C23CC(CNC(=O)[C@H](Cc4cccnc4)N(C)C(=O)[C@H](CCCC)NC(=O)[C@H](Cc4ccccc4F)NC1=O)(C2)C3 [compound 242, cyclo(FLac-NMeDabN3-PyrimAla-Nle-Phe2F-Nle-NMe3Pal-amBCP)] (cyclo([NMe3Pal][X1][PhLac][NMeAha][Ala(pyrimidin-5-yl)][Nle][Phe(2-F)][Nle]))	4.93
CCCC[C@@H]1NC(=O)[C@H](Cc2ccccc2F)NC(=O)[C@H](CCN=[N+]=[N-])NC(=O)[C@H](Cc2cccnc2)NC(=O)[C@H](CCCC)N(C)C(=O)[C@H](Cc2ccccc2)OC(=O)C23CC(CNC(=O)[C@H](Cc4cccnc4)N(C)C1=O)(C2)C3 [compound 243, cyclo(FLac-NMeNle-3Pal-DabN3-Phe2F-Nle-NMe3Pal-amBCP)] (cyclo([3Pal][Aha][Phe(2-F)][Nle][NMe3Pal][X1][PhLac][NMeNle]))	4.66
CCCC[C@@H]1NC(=O)[C@H](Cc2cccnc2)NC(=O)[C@H](C)N(C)C(=O)[C@H](Cc2ccccc2)OC(=O)C23CC(CNC(=O)[C@H](Cc4cccnc4)N(C)C(=O)[C@H](CCCC)NC(=O)[C@H](Cc4ccccc4F)NC1=O)(C2)C3 [compound 244, cyclo(FLac-NMeA-3Pal-Nle-Phe2F-Nle-NMe3Pal-amBCP)] (cyclo([3Pal][Nle][Phe(2-F)][Nle][NMe3Pal][X1][PhLac][NMeA]))	5.14
CCCC[C@@H]1NC(=O)[C@H](Cc2cncnc2)NC(=O)[C@H](CCCn2ccnc2)N(C)C(=O)[C@H](Cc2ccccc2)OC(=O)C23CC(CNC(=O)[C@H](Cc4cccnc4)N(C)C(=O)[C@H](CCCC)NC(=O)[C@H](Cc4ccccc4F)OC1=O)(C2)C3 [compound 246, cyclo(FLac-NMeNvalmid-PyrimAla-Nle-F2FLac-Nle-NMe3Pal-amBCP)] (cyclo([NMe3Pal][X1][PhLac][NMeNva(5-imidazol-1-yl)][Ala(pyrimidin-5-yl)][Nle][X2][Nle]))	< 4.29
CCCC[C@@H]1NC(=O)[C@H](Cc2cccnc2)NC(=O)[C@H](CCN=[N+]=[N-])N(C)C(=O)[C@H](Cc2ccccc2)OC(=O)C23CC(CNC(=O)[C@H](Cc4cccnc4)N(C)C(=O)[C@H](CCCC)NC(=O)[C@H](Cc4ccccc4F)NC1=O)(C2)C3 [compound 249, cyclo(FLac-NMeDabN3-3Pal-Nle-Phe2F-Nle-NMe3Pal-amBCP)] (cyclo([3Pal][Nle][Phe(2-F)][Nle][NMe3Pal][X1][PhLac][NMeAha]))	5.40
CCCC[C@@H]1NC(=O)[C@H](Cc2ccccc2F)NC(=O)[C@H](CCCC)OC(=O)[C@H](Cc2cccnc2)NC(=O)[C@H](CCN=[N+]=[N-])N(C)C(=O)[C@H](Cc2ccccc2)NC(=O)C23CC(CNC(=O)[C@H](Cc4cccnc4)N(C)C1=O)(C2)C3 [compound 250, cyclo(F-NMeDabN3-3Pal-NleLac-Phe2F-Nle-NMe3Pal-amBCP)] (cyclo(F[NMeAha][3Pal][X9][Phe(2-F)][Nle][NMe3Pal][X1]))	< 4.29
CCCC[C@@H]1NC(=O)[C@H](Cc2cccnc2)NC(=O)[C@H](CC#N)NC(=O)[C@H](Cc2ccccc2)OC(=O)C23CC(CNC(=O)[C@H](Cc4cccnc4)N(C)C(=O)[C@H](CCCC)NC(=O)[C@H](Cc4ccccc4F)NC1=O)(C2)C3 [compound 252, cyclo(FLac-AlaCN-3Pal-Nle-Phe2F-Nle-NMe3Pal-amBCP)] (cyclo([3Pal][Nle][Phe(2-F)][Nle][NMe3Pal][X1][PhLac][Ala(CN)]))	< 4.29
CCCC[C@@H]1NC(=O)[C@H](Cc2cccnc2)NC(=O)[C@H](COC)N(C)C(=O)[C@H](Cc2ccccc2)OC(=O)C23CC(CNC(=O)[C@H](Cc4cccnc4)N(C)C(=O)[C@H](CCCC)NC(=O)[C@H](Cc4ccccc4F)NC1=O)(C2)C3 [compound 255, cyclo(FLac-nMeSMe-3Pal-Nle-Phe2F-Nle-NMe3Pal-amBCP)] (cyclo([3Pal][Nle][Phe(2-F)][Nle][NMe3Pal][X1][PhLac][NMeS](Me)))	< 4.29
CC(C)CC[C@@H]1NC(=O)[C@H](Cc2ccccc2F)NC(=O)[C@H](CC2CC2)NC(=O)[C@H](Cc2cncnc2)NC(=O)[C@H](C)N(C)C(=O)[C@H](Cc2ccccc2)OC(=O)C23CC(CNC(=O)[C@H](Cc4ccccc4)N(C)C1=O)(C2)C3 [compound 260, cyclo(FLac-NMeA-PyrimAla-cPrA-Phe2F-hL-NMeF-amBCP)] (cyclo([Ala(cPr)][Phe(2-F)][hLeu][NMeF][X1][PhLac][NMeA][Ala(pyrimidin-5-yl)]))	6.78
C[C@H]1C(=O)N[C@@H](Cc2cncnc2)C(=O)N[C@@H](CC2CC2)C(=O)N[C@@H](Cc2ccccc2F)C(=O)N[C@@H](CC2CC2)C(=O)N(C)[C@@H](Cc2ccccc2)C(=O)NCC23CC(C2)(C3)C(=O)O[C@@H](Cc2ccccc2)C(=O)N1C [compound 267, cyclo(FLac-NMeA-PyrimAla-cPrA-Phe2F-cPrA-NMeF-amBCP)] (cyclo([Ala(cPr)][NMeF][X1][PhLac][NMeA][Ala(pyrimidin-5-yl)][Ala(cPr)][Phe(2-F)]))	5.04
C[C@H]1C(=O)N[C@@H](Cc2cncnc2)C(=O)N[C@@H](CC2CC2)C(=O)N[C@@H](Cc2ccccc2F)C(=O)N[C@@H](CC(F)F)C(=O)N(C)[C@@H](Cc2ccccc2)C(=O)NCC23CC(C2)(C3)C(=O)O[C@@H](Cc2ccccc2)C(=O)N1C [compound 271, cyclo(FLac-NMeA-PyrimAla-cPrA-Phe2F-AbuF2-NMeF-amBCP)] (cyclo([Ala(cPr)][Phe(2-F)][Abu(4,4-F2)][NMeF][X1][PhLac][NMeA][Ala(pyrimidin-5-yl)]))	4.44
CC(C)CC[C@@H]1NC(=O)[C@H](Cc2ccccc2F)NC(=O)[C@H](CC23CC(C2)C3)NC(=O)[C@H](Cc2cncnc2)NC(=O)[C@H](C)N(C)C(=O)[C@H](Cc2ccccc2)OC(=O)C23CC(CNC(=O)[C@H](Cc4ccccc4)N(C)C1=O)(C2)C3 [compound 272, cyclo(FLac-NMeA-PyrimAla-AlaPent-Phe2F-hL-NMeF-amBCP)] (cyclo([NMeA][Ala(pyrimidin-5-yl)][Ala(1-bicyclo(1.1.1)pentyl)][Phe(2-F)][hLeu][NMeF][X1][PhLac]))	5.53
C[C@H]1C(=O)N[C@@H](Cc2cncnc2)C(=O)N[C@@H](CC2CC2)C(=O)N[C@@H](Cc2ccccc2F)C(=O)N[C@@H](CCC(C)(C)F)C(=O)N(C)[C@@H](Cc2ccccc2)C(=O)NCC23CC(C2)(C3)C(=O)C[C@@H](Cc2ccccc2)C(=O)N1C [compound 273, cyclo(CPhe-NMeA-PyrimAla-cPrA-Phe2F-hL3F-NMeF-amBCP)] (cyclo([Ala(cPr)][Phe(2-F)][X11][NMeF][X34][NMeA][Ala(pyrimidin-5-yl)]))	5.91
Cc1cccc(C[C@H]2C(=O)NCC34CC(C3)(C4)C(=O)O[C@@H](Cc3ccccc3)C(=O)N(C)[C@@H](C)C(=O)N[C@@H](Cc3cncnc3)C(=O)N[C@@H](CC3CC3)C(=O)N[C@@H](Cc3ccccc3F)C(=O)N[C@@H](CCC(C)(C)F)C(=O)N2C)c1 [compound 274, cyclo(FLac-NMeA-PyrimAla-cPrA-Phe2F-hL3F-NMePhe3Me-amBCP)] (cyclo([Ala(cPr)][Phe(2-F)][X11][NMePhe(3-Me)][X1][PhLac][NMeA][Ala(pyrimidin-5-yl)]))	6.22
Cc1cccc(C[C@H]2C(=O)NCC34CC(C3)(C4)C(=O)O[C@@H](Cc3ccccc3)C(=O)N(C)[C@@H](C)C(=O)N[C@@H](Cc3cncnc3)C(=O)N[C@@H](CC3CC3)C(=O)N[C@@H](Cc3ccccc3F)C(=O)N[C@@H](CCC(C)(F)F)C(=O)N2C)c1 [compound 275, cyclo(FLac-NMeA-PyrimAla-cPrA-Phe2F-Nle3F2-NMePhe3Me-amBCP)] (cyclo([Ala(cPr)][Phe(2-F)][Nle(5,5-F2)][NMePhe(3-Me)][X1][PhLac][NMeA][Ala(pyrimidin-5-yl)]))	6.03
